According to patent US9428505B2, “Hydantoin derivative” (Chugai Seiyaku Kabushiki Kaisha, priority 2012, dated 2016):

What was measured:
[1] = Metabolic stability using rat hepatocyte; format: in vitro ADME; details: for hepatocyte CLint at 1 μM: rat (SD, female) hepatocytes 1×10^6 cells/mL, compound 1 μM, 37° C., read-out: Clearance; for rat hepatocyte metabolic stability compared to Comparative Examples 1, 2, 3, 5, and 6: rat hepatocytes
Description: Examination of Metabolic Stability Using Rat Hepatocyte
Liver cells were prepared from the liver of rats (SD, female) by a collagenase perfusion method. A compound of the Examples or a Comparative Example was added, and this was incubated at 37° C. for a specified amount of time, followed by addition of a reaction-stopping solution. The concentration of the parent compound at each reaction time was measured using LC/MS/MS, and inherent clearance (μL/10^6 cells/min) was calculated from the slope of the reaction time versus residual rate.
Cell concentration: 1×10^6 cells/mL
(§1) Compound concentration: 1 μM
Medium: Williams' medium E
Reaction-stopping solution: acetonitrile/2-propanol (4/6, v/v)

[2] = tested on: TPTX rat model; assay: Calcemic action in the TPTX rat model; format: in vivo; details: TPTX rats, oral 30 mg/kg; for change of serum Ca concentration from the Pre-value: up to 24 hours after administration; for significance of serum Ca change compared to Comparative Examples 1 and 2: p<0.05
Description: Calcemic Action in the TPTX Rat Model
Four-week old female Crl:CD(SD) rats were obtained from Charles River Japan (Atsugi Breeding Center), and were acclimated to standard laboratory conditions of 20-26° C. and 35-75% humidity for one week. The rats were given tap water and were fed ad libitum with standard rodent chow (CE-2) (CLEA Japan, Inc.) containing 1.1% calcium, 1.0% phosphoric acid, and 250 IU/100 g of vitamin D3.
TPTX was performed on five-week old rats. Some of the individuals were subjected to sham operation (Sham). Individuals whose serum Ca concentration was less than 8 mg/dL on four days after the operation were selected for use as TPTX rats. On five days after the operation, the rats were assigned to eight TPTX groups and one Sham group (n=5, each group) based on their body weight and serum Ca concentration measured on four days after the operation. The solvent alone was orally administered to the Sham group and the TPTX-Vehicle group at a volume of 10 mL/kg. Each test article was orally administered individually to each TPTX test article group by dissolving it in a solvent at a dose of 30 mg/10 mL/kg. The solvent composition was 10% dimethylsulfoxide (Wako Pure Chemical Industries, Ltd.), 10% Cremophor EL (Sigma-Aldrich Japan LLC), 20% hydroxypropyl-β-cyclodextrin (Nihon Shokuhin Kako Co., Ltd.), glycine (Wako Pure Chemical Industries, Ltd.); and the pH was adjusted to 10. Immediately before administration of each sample, Pre-blood collection was performed, and blood collection was carried out at 2, 6, 10, and 24 hours after administration to measure the serum Ca concentration. Each blood collection was carried out from the jugular vein under isoflurane inhalation anesthesia.
Serum Ca measurement: Serum obtained by centrifugation from the collected blood was measured by using an automatic analyzer TBA-120FR (Toshiba Medical Systems Corporation).
For statistical analysis of the animal studies, data are shown as mean±standard error (SE). Statistical analysis were performed by unpaired test of the SAS Preclinical Package (Ver. 5.00.010720, SAS Institute Japan, Tokyo, Japan).

[3] = molecular target: rat PTH1R (Rattus norvegicus (Rat), UniProt P25961); assay: In vitro cAMP signaling activity via the rat PTH1R (LLC-PK46_RATO_PTH1R cells); format: cell-based; details: LLC-PK46_RATO_PTH1R cells overexpressing rat PTH1R; for EC20: 20% cAMP signaling activity; for EC50: 50% cAMP signaling activity
From the text: Measurement of the Compounds' In Vitro cAMP Signaling Activity Via the Rat PTH1R
Instead of HKRK-B7 cells, LLC-PK46_RATO_PTH1R cells overexpressing rat PTH1R, which were established at Chugai Pharmaceutical, were used to take measurements in a similar manner to Test Example 1.

[4] = Metabolic stability using human liver microsomes; format: in vitro ADME; details: pH 7.4; human liver microsomes 0.5 mg/mL, compound 1 μM, NADPH 1 mM, 37° C.; read-out: Clearance
Description: Examination of Metabolic Stability Using Human Liver Microsomes
In 0.1 M phosphate buffer (pH7.4), human liver microsomes were incubated with a compound or a comparative example in the coexistence of NADPH at 37° C. for a specified amount of time. The concentration of the parent compound at each reaction time was measured using LC/MS/MS, and inherent clearance (μL/min/mg protein) was calculated from the slope of the reaction time versus residual rate.
as §1
Reaction time: 0, 5, 15, and 30 minutes

[5] = molecular target: human PTH1R (Homo sapiens (Human), UniProt Q03431); assay: In vitro cAMP signal activity via the human PTH1R (HKRK-B7 cells); format: cell-based; details: 100 nM human PTH(1-34) = 100%; for EC20: concentration giving 20% cAMP signaling activity; for EC50: concentration giving 50% cAMP signaling activity
Description: Measurement of In Vitro cAMP Signal Activity of Compounds Via the Human PTH1R
Human PTH(1-34) and calcitonin were purchased from Peptide Institute, Inc. (Osaka, Japan), dissolved in 10 mM acetic acid to 1 mM and stored in a −80° C. freezer.
Cells were cultured in Dulbecco's modified Eagle's medium (DMEM) supplemented with 10% fetal bovine serum (Hyclone), 100 units/ml penicillin G and 100 μg/ml streptomycin sulfate (Invitrogen Corp) at 37° C. in a humidified atmosphere containing 5% CO2.
cAMP signal transduction analysis utilized LLC-PK1 cells not expressing the PTH1R, and HKRK-B7 cells, that is, LLC-PK1 cells overexpressing the human PTH1R at 9.5×10^5 receptors/cell (Takasu et al., J. Bone. Miner. Res. 14:11-20, 1999).
HKRK-B7 or LLC-PK1 cells were seeded into a 96-well plate at 1×10^5 cells/well and incubated overnight. On the following day, 50 μl of cAMP assay buffer (DMEM, 2 mM IBMX, 0.2 mg/ml bovine serum albumin, 35 mM Hepes-NaOH, pH 7.4) containing human PTH(1-34) or each compound was added and the plate was placed in a 37° C. incubator. The cells were incubated for 20 minutes. After removing the medium, the cells were washed with 100 μl of cAMP assay buffer once. The plate was placed on dry ice powder to freeze the cells and then removed from the dry ice. The cells were lysed with 40 μl of 50 mM HCl and frozen again on dry ice. The amount of intracellular cAMP produced was measured using a commercially available cAMP EIA kit (Biotrack cAMP EIA system, GE health care).
Analyses were performed using a variable gradient S-shaped dose-response curve equation.

rat PTH1R, sequence (P25961 27-591): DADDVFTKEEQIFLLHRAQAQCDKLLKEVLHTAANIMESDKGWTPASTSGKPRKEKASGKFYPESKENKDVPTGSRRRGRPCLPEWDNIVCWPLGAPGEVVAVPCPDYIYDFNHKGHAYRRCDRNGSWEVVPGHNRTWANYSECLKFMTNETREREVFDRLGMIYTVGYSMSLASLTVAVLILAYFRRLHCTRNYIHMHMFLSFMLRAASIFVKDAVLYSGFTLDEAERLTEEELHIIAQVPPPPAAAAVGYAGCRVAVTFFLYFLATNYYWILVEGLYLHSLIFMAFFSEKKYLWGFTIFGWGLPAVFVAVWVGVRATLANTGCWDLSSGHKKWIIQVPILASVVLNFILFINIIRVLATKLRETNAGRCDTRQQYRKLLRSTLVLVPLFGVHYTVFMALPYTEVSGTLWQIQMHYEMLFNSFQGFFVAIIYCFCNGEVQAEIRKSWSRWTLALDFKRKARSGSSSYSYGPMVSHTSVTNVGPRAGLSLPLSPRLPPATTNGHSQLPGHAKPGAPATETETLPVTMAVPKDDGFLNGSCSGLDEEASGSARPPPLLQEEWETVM
human PTH1R, sequence (Q03431 27-593): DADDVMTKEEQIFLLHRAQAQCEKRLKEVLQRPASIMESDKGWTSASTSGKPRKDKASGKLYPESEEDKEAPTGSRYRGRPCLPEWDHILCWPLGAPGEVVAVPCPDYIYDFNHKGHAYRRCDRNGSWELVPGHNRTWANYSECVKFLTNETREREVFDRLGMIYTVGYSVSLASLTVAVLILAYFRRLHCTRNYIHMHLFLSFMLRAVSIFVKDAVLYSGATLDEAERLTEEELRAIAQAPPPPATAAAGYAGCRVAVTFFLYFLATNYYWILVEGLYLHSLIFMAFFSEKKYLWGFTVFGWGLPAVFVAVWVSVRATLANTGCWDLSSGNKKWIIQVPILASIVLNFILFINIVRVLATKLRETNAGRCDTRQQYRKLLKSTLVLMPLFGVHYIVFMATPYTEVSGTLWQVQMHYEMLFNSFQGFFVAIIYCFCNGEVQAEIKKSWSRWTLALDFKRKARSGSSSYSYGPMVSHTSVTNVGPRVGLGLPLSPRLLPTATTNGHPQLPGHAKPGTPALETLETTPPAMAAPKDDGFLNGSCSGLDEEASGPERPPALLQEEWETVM

| SMILES | hepatocyte CLint at 1 μM [1] [µL/min/1e6 cells] | EC20 [3] [µM] | EC50 [3] [µM] | microsomal CLint at 1 μM [4] [µL/min/mg] | EC20 [5] [µM] | EC50 [5] [µM] | rat hepatocyte metabolic stability compared to Comparative Examples 1, 2, 3, 5, and 6 [1] | achievement of therapeutic target range of serum Ca concentration of 7.6 to 8.8 mg/dL [2] | change of serum Ca concentration from the Pre-value [2] | significance of serum Ca change compared to Comparative Examples 1 and 2 [2] |
| --- | --- | --- | --- | --- | --- | --- | --- | --- | --- | --- |
| Cc1cc(N2C(=O)NC(=O)C2(C)C)cc(C)c1CCS(=O)(=O)N1CCC2(CC1)N=C(c1cccc(C(F)(F)F)c1)NC2=O [Compound 6, 1-(3,5-dimethyl-4-(2-((4-oxo-2-(3-(trifluoromethyl)phenyl)-1,3,8-triazaspiro[4.5]deca-1-en-8-yl)sulfonyl)ethyl)phenyl)-5,5-dimethylimidazolidine-2,4-dione] | 1.4 |  |  | 29 | 2.0 | 9 |  | achieved the therapeutic target range | large positive changes from the Pre-value |  |
| Cc1cc(N2C(=O)NC(=O)C23COC3)cc(C)c1CCS(=O)(=O)N1CCC2(CC1)N=C(c1ccc(OC(F)(F)F)cc1)NC2=O [Compound 10, 5-(3,5-dimethyl-4-(2-((4-oxo-2-(4-(trifluoromethoxy)phenyl)-1,3,8-triazaspiro[4.5]deca-1-en-8-yl)sulfonyl)ethyl)phenyl)-2-oxa-5,7-diazaspiro[3.4]octane-6,8-dione] | 0.3 | 3.0 | 12 | 29 | 5.0 | 21 | increased |  |  |  |
| Cc1cc(N2C(=O)NC(=O)C23CC3)cc(C)c1CCS(=O)(=O)N1CCC2(CC1)N=C(c1ccc(OC(F)(F)F)cc1)NC2=O [Compound 11, 4-(3,5-dimethyl-4-(2-((4-oxo-2-(4-(trifluoromethoxy)phenyl)-1,3,8-triazaspiro[4.5]deca-1-en-8-yl)sulfonyl)ethyl)phenyl)-4,6-diazaspiro[2.4]heptane-5,7-dione] |  | 0.8 | 3.2 | 19 | 1.5 | 11 | increased |  |  |  |

More lines, in order of falling EC50 [3], values ahead:

| hepatocyte CLint at 1 μM [1] [µL/min/1e6 cells] | EC20 [3] [µM] | EC50 [3] [µM] | microsomal CLint at 1 μM [4] [µL/min/mg] | EC20 [5] [µM] | EC50 [5] [µM] | rat hepatocyte metabolic stability compared to Comparative Examples 1, 2, 3, 5, and 6 [1] | SMILES | achievement of therapeutic target range of serum Ca concentration of 7.6 to 8.8 mg/dL [2] | change of serum Ca concentration from the Pre-value [2] | significance of serum Ca change compared to Comparative Examples 1 and 2 [2] |
| --- | --- | --- | --- | --- | --- | --- | --- | --- | --- | --- |
| 0.9 | 0.5 | 2.4 | 30 | 1.1 | 4.1 | increased | Cc1cc(N2C(=O)NC(=O)C2(C)C)cc(C)c1CCS(=O)(=O)N1CCC2(CC1)N=C(c1ccc(OC(F)(F)F)cc1)NC2=O [Compound 7, 1-(3,5-dimethyl-4-(2-((4-oxo-2-(4-(trifluoromethoxy)phenyl)-1,3,8-triazaspiro[4.5]deca-1-en-8-yl)sulfonyl)ethyl)phenyl)-5,5-dimethylimidazolidine-2,4-dione] | achieved the therapeutic target range | large positive changes from the Pre-value | statistically significant |
| 5.8 | 0.8 | 2.3 | 84 | 1.5 | 4.8 |  | Cc1cc(N2C(=O)CNC2=O)ccc1CCS(=O)(=O)N1CCC2(CC1)N=C(c1cccc(OC(F)(F)F)c1)NC2=O [Comparative Example 1, reference compound] | could not be achieved | smaller positive changes from the Pre-value |  |
| 3 | 0.4 | 1.9 | 35 |  |  | increased | Cc1cc(N2C(=O)NC(=O)C23CCCC3)cc(C)c1CCS(=O)(=O)N1CCC2(CC1)N=C(c1ccc(OC(F)(F)F)cc1)NC2=O [Compound 8, 1-(3,5-dimethyl-4-(2-((4-oxo-2-(4-(trifluoromethoxy)phenyl)-1,3,8-triazaspiro[4.5]deca-1-en-8-yl)sulfonyl)ethyl)phenyl)-1,3-diazaspiro[4.4]nonane-2,4-dione] | achieved the therapeutic target range | large positive changes from the Pre-value | statistically significant |
